# Experimental data as given in patent publication US9580449B2, “Compositions and methods for the production of pyrimidine and pyridine compounds with BTK inhibitory activity” (Merck Patent GmbH, priority 2011, dated 2017).
# Target: full-length human BTK (Homo sapiens (Human), UniProt Q06187)
# Experiment: BTK IC50 enzyme assay (microfluidic off-chip mobility shift kinase assay)
# Assay type: biochemical
# Conditions: incubated for 90 min. at 27 C; read-out: Time Dependent BTK Enzyme Assay IC50
# Procedure, shortened: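 Read-out separates phosphorylated peptide product from substrate by charge/mass in a mobility shift format with full-length human BTK.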
# full-length human BTK, sequence (Q06187 whole entry): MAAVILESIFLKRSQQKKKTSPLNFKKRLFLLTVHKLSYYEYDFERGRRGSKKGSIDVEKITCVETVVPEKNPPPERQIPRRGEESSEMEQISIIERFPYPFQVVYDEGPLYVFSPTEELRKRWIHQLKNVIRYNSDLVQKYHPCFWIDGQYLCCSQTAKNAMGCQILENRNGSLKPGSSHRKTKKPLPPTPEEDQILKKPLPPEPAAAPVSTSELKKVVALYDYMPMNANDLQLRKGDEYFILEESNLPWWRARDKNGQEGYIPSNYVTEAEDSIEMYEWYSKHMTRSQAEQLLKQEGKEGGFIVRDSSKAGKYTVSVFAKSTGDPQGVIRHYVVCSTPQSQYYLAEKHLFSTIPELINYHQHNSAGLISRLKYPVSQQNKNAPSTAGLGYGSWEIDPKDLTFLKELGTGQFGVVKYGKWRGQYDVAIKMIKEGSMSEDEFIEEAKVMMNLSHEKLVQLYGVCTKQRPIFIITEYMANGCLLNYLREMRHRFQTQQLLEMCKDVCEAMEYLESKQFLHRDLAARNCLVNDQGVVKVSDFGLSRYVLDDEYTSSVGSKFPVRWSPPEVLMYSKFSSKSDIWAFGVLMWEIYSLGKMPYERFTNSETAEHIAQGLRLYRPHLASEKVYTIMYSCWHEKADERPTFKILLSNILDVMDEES
row,SMILES,IC50 [nM]
1,"C=CC(=O)N1CC[C@@H](CNc2ncnc(N)c2-c2ccc(Oc3cccc(C(F)(F)F)c3)cc2)[C@H](O)C1 [A170, 1-((3S,4S)-4-(((6-amino-5-(4-(3-(trifluoromethyl)phenoxy)phenyl)pyrimidin-4-yl)amino)methyl)-3-hydroxypiperidin-1-yl)prop-2-en-1-one]",< 100
2,"C=CC(=O)NC12CCC(Nc3ncnc(N)c3-c3ccc(Oc4ccccc4)cc3)(C1)C2 [A177, N-(4-((6-amino-5-(4-phenoxyphenyl)pyrimidin-4-yl)amino)bicyclo[2.1.1]hexan-1-yl)acrylamide]",< 100
3,"Nc1ncnc(N[C@@H]2CCN(S(=O)(=O)c3c(F)c(F)c(F)c(F)c3F)C2)c1-c1ccc(Oc2ccccc2)cc1 [A178, (R)-N4-(1-((perfluorophenyl)sulfonyl)pyrrolidin-3-yl)-5-(4-phenoxyphenyl)pyrimidine-4,6-diamine]",< 100
4,"Nc1ncnc(N[C@@H]2CCCN(S(=O)(=O)c3c(F)c(F)c(F)c(F)c3F)C2)c1-c1ccc(Oc2ccccc2)cc1 [A179, (R)-N4-(1-((perfluorophenyl)sulfonyl)piperidin-3-yl)-5-(4-phenoxyphenyl)pyrimidine-4,6-diamine]",< 1000
5,"C=CC(=O)N1CCC[C@@H](Nc2ncnc(N)c2-c2cnn(Cc3ccccc3)c2)C1 [A180, (R)-1-(3-((6-amino-5-(1-benzyl-1H-pyrazol-4-yl)pyrimidin-4-yl)amino)piperidin-1-yl)prop-2-en-1-one]",< 1000
6,"C=CC(=O)NC1CC(CNc2ncnc(N)c2-c2ccc(Oc3ccccc3)cc2)C1 (stereo not shown) [A182, N-(3-(((6-amino-5-(4-phenoxyphenyl)pyrimidin-4-yl)amino)methyl)cyclobutyl)acrylamide]",< 100
7,"C=CC(=O)Nc1cccc(Oc2ncnc(N)c2-c2cnn(Cc3cc(F)cc(F)c3)c2)c1 [A183, N-(3-((6-amino-5-(1-(3,5-difluorobenzyl)-1H-pyrazol-4-yl)pyrimidin-4-yl)oxy)phenyl)acrylamide]",< 100
8,"C=CC(=O)Nc1cccc(Oc2ncnc(N)c2-c2cnn(Cc3ccccc3F)c2)c1 [A184, N-(3-((6-amino-5-(1-(2-fluorobenzyl)-1H-pyrazol-4-yl)pyrimidin-4-yl)oxy)phenyl)acrylamide]",< 100
9,"C=CC(=O)N1CC(Nc2ncnc(N)c2-c2ccc(Oc3ccccc3)cc2)C1 [A185, 1-(3-((6-amino-5-(4-phenoxyphenyl)pyrimidin-4-yl)amino)azetidin-1-yl)prop-2-en-1-one]",< 100
10,"C=CC(=O)Nc1cncc(Nc2ncnc(N)c2-c2ccc(Oc3ccccc3)cc2)c1 [A186, N-(5-((6-amino-5-(4-phenoxyphenyl)pyrimidin-4-yl)amino)pyridin-3-yl)acrylamide]",< 100
11,"C=CC(=O)Nc1cccc(Oc2ncnc(N)c2-c2cnn(Cc3ccc(F)cc3)c2)c1 [A187, N-(3-((6-amino-5-(1-(4-fluorobenzyl)-1H-pyrazol-4-yl)pyrimidin-4-yl)oxy)phenyl)acrylamide]",< 100
12,"C=CC(=O)Nc1cncc(Oc2ncnc(N)c2-c2cnn(Cc3ccccc3)c2)c1 [A189, N-(5-((6-amino-5-(1-benzyl-1H-pyrazol-4-yl)pyrimidin-4-yl)oxy)pyridin-3-yl)acrylamide]",< 100
13,"C=CC(=O)Nc1cccc(Oc2ncnc(N)c2-c2cnn(Cc3cccc(C)c3)c2)c1 [A190, N-(3-((6-amino-5-(1-(3-methylbenzyl)-1H-pyrazol-4-yl)pyrimidin-4-yl)oxy)phenyl)acrylamide]",< 100
14,"C=CC(=O)Nc1cccc(Oc2ncnc(N)c2-c2cnn(Cc3cccc(Cl)c3)c2)c1 [A191, N-(3-((6-amino-5-(1-(3-chlorobenzyl)-1H-pyrazol-4-yl)pyrimidin-4-yl)oxy)phenyl)acrylamide]",< 100
15,"C=CC(=O)N1CCO[C@@H](COc2ncnc(N)c2-c2cnn(Cc3ccccc3)c2)C1 [A192, (R)-1-(2-(((6-amino-5-(1-benzyl-1H-pyrazol-4-yl)pyrimidin-4-yl)oxy)methyl)morpholino)prop-2-en-1-one]",< 1000
16,"C=CC(=O)N1CCO[C@H](COc2ncnc(N)c2-c2cnn(Cc3ccccc3)c2)C1 [A193, (S)-1-(2-(((6-amino-5-(1-benzyl-1H-pyrazol-4-yl)pyrimidin-4-yl)oxy)methyl)morpholino)prop-2-en-1-one]",> 1000
17,"C=CC(=O)Nc1cccc(Oc2ncnc(N)c2-c2cnn(Cc3ccccc3C#N)c2)c1 [A194, N-(3-((6-amino-5-(1-(2-cyanobenzyl)-1H-pyrazol-4-yl)pyrimidin-4-yl)oxy)phenyl)acrylamide]",< 100
18,"C=CC(=O)Nc1cccc(Oc2ncnc(N)c2-c2cnn(Cc3cccc(C(F)(F)F)c3)c2)c1 [A195, N-(3-((6-amino-5-(1-(3-(trifluoromethyl)benzyl)-1H-pyrazol-4-yl)pyrimidin-4-yl)oxy)phenyl)acrylamide]",< 100
19,"C=CC(=O)N1CC[C@@H](COc2ncnc(N)c2-c2cnn(Cc3ccccc3)c2)C1 [A196, (R)-1-(3-(((6-amino-5-(1-benzyl-1H-pyrazol-4-yl)pyrimidin-4-yl)oxy)methyl)pyrrolidin-1-yl)prop-2-en-1-one]",< 1000
20,"C=CC(=O)Nc1cccc(Oc2ncnc(N)c2-c2cnn(Cc3cccc(OC)c3)c2)c1 [A198, N-(3-((6-amino-5-(1-(3-methoxybenzyl)-1H-pyrazol-4-yl)pyrimidin-4-yl)oxy)phenyl)acrylamide]",< 100
21,"C=CC(=O)N1C2CCC1CC(CNc1ncnc(N)c1-c1ccc(Oc3ccc(C#N)cc3)cc1)C2 (stereo not shown) [A208, 4-(4-(4-(((8-acryloyl-8-azabicyclo[3.2.1]octan-3-yl)methyl)amino)-6-aminopyrimidin-5-yl)phenoxy)benzonitrile]",> 1000
22,"C=CC(=O)N1C2CCC1CC(CNc1ncnc(N)c1-c1cnn(Cc3ccccc3)c1)C2 (stereo not shown) [A209, 1-(3-(((6-amino-5-(1-benzyl-1H-pyrazol-4-yl)pyrimidin-4-yl)amino)methyl)-8-azabicyclo[3.2.1]octan-8-yl)prop-2-en-1-one]",< 1000

# Next, values leading:
row,IC50 [nM],SMILES
1,< 1000,"C=CC(=O)N1CCO[C@@H](COc2ncnc(N)c2-c2ccc(Oc3ccc(C#N)cc3)cc2)C1 [A200, (R)-4-(4-(4-((4-acryloylmorpholin-2-yl)methoxy)-6-aminopyrimidin-5-yl)phenoxy)benzonitrile]"
2,< 1000,"C=CC(=O)N1CC[C@@H](COc2ncnc(N)c2-c2ccc(Oc3ccc(C#N)cc3)cc2)C1 [A201, (R)-4-(4-(4-((1-acryloylpyrrolidin-3-yl)methoxy)-6-aminopyrimidin-5-yl)phenoxy)benzonitrile]"
3,< 100,"C=CC(=O)N1CC2(CC(Oc3ncnc(N)c3-c3ccc(Oc4ccc(C#N)cc4)cc3)C2)C1 [A202, 4-(4-(4-((2-acryloyl-2-azaspiro[3.3]heptan-6-yl)oxy)-6-aminopyrimidin-5-yl)phenoxy)benzonitrile]"
4,< 100,"C=CC(=O)Nc1cccc(Oc2ncnc(N)c2-c2cnn(Cc3cccc(C#N)c3)c2)c1 [A203, N-(3-((6-amino-5-(1-(3-cyanobenzyl)-1H-pyrazol-4-yl)pyrimidin-4-yl)oxy)phenyl)acrylamide]"
5,< 100,"C=CC(=O)N1C[C@@H](F)C[C@H](Nc2ncnc(N)c2-c2ccc(Oc3ccccc3)cc2)C1 [A204, 1-((3S,5S)-3-((6-amino-5-(4-phenoxyphenyl)pyrimidin-4-yl)amino)-5-fluoropiperidin-1-yl)prop-2-en-1-one]"
6,< 100,"C=CC(=O)N1C[C@H](F)C[C@@H](Nc2ncnc(N)c2-c2ccc(Oc3ccccc3)cc2)C1 [A205, 1-((3R,5R)-3-((6-amino-5-(4-phenoxyphenyl)pyrimidin-4-yl)amino)-5-fluoropiperidin-1-yl)prop-2-en-1-one]"
7,< 100,"C=CC(=O)Nc1cccc(Oc2ncnc(N)c2-c2cnn(Cc3cccc(C(=O)OC)c3)c2)c1 [A206, methyl 3-((4-(4-(3-acrylamidophenoxy)-6-aminopyrimidin-5-yl)-1H-pyrazol-1-yl)methyl)benzoate]"
8,< 1000,"C=CC(=O)N1CC2(CC(Nc3ncnc(N)c3-c3ccc(Oc4ccc(C#N)cc4)cc3)C2)C1 [A207, 4-(4-(4-((2-acryloyl-2-azaspiro[3.3]heptan-6-yl)amino)-6-aminopyrimidin-5-yl)phenoxy)benzonitrile]"
9,< 100,"C=CC(=O)Nc1cccc(Oc2ncnc(N)c2-c2cnn(Cc3cccc(N(C)C)c3)c2)c1 [A212, N-(3-((6-amino-5-(1-(3-(dimethylamino)benzyl)-1H-pyrazol-4-yl)pyrimidin-4-yl)oxy)phenyl)acrylamide]"
10,< 100,"CC#CC(=O)N1CC[C@@H](CNc2ncnc(N)c2-c2ccc(Oc3ccccc3)cc2)[C@H](O)C1 [A215, 1-((3S,4S)-4-(((6-amino-5-(4-phenoxyphenyl)pyrimidin-4-yl)amino)methyl)-3-hydroxypiperidin-1-yl)but-2-yn-1-one]"
11,< 100,"C=CC(=O)N1CCC(CNc2ncnc(N)c2-c2ccc(Oc3ccccc3)cc2)(C(=O)O)CC1 [A216, 1-acryloyl-4-(((6-amino-5-(4-phenoxyphenyl)pyrimidin-4-yl)amino)methyl)piperidine-4-carboxylic acid]"
12,< 1000,"CN(C)C/C=C/C(=O)N1CCC(CNc2ncnc(N)c2-c2ccc(Oc3ccccc3)cc2)(C(=O)O)CC1 [A217, (E)-4-(((6-amino-5-(4-phenoxyphenyl)pyrimidin-4-yl)amino)methyl)-1-(4-(dimethylamino)but-2-enoyl)piperidine-4-carboxylic acid]"
13,< 1000,"Nc1ncnc(NCC2CCN(C(=O)/C=C/CN3CC(F)C3)CC2)c1-c1ccc(Oc2ccccc2)cc1 [A218, (E)-1-(4-(((6-amino-5-(4-phenoxyphenyl)pyrimidin-4-yl)amino)methyl)piperidin-1-yl)-4-(3-fluoroazetidin-1-yl)but-2-en-1-one]"
14,> 1000,"Nc1ncnc(NCC2CCN(C(=O)/C=C/CN3CC(F)(F)C3)CC2)c1-c1ccc(Oc2ccccc2)cc1 [A219, (E)-1-(4-(((6-amino-5-(4-phenoxyphenyl)pyrimidin-4-yl)amino)methyl)piperidin-1-yl)-4-(3,3-difluoroazetidin-1-yl)but-2-en-1-one]"
15,< 1000,"Nc1ncnc(NCC2CCN(C(=O)/C=C/CN3CCCC3)CC2)c1-c1ccc(Oc2ccccc2)cc1 [A220, (E)-1-(4-(((6-amino-5-(4-phenoxyphenyl)pyrimidin-4-yl)amino)methyl)piperidin-1-yl)-4-(pyrrolidin-1-yl)but-2-en-1-one]"
